{"source": "patent US12350458B2", "about": "“Apparatus and method for skin treatment” (Brain Tunnelgenix Technologies Corp., priority 2015, dated 2025)", "experimental": "Referring to FIG. 1, an epidermis 1506 and a dermis 1508 are collectively referred to as a superficial skin layer 1520 herein. An area of a skin 1500 where cold is applied is referred to herein as a cold site. […] Skin blood flow rate in both the cold site and normothermic site was measured using a laser Doppler perfusion imaging system. Studies also compared plasma concentration of drug 1510 in subjects at the cold site and the normothermic site. […] In one exemplary experiment skin blood flow was measured 15 min after application of cold, and every 15 min thereafter for a total of 3 hours.", "data": [{"smiles": "O=C(O)c1ccccc1O", "note": "[salicylic acid]", "values": [{"measurement": "concentration of drug in superficial skin layer of cold site, higher compared to normothermic site", "result": "about 80%"}, {"measurement": "plasma concentration at cold site, lower compared to normothermic site", "setting": "human, in vivo", "result": "about 60%"}, {"measurement": "plasma concentration, cold site", "setting": "human, in vivo", "result": "about 45 nmol/ml"}]}]}
